In ChEMBL document CHEMBL1128761, “Benzothiazolylthio carbapenems: potent anti-MRSA agents” (Bioorg Med Chem Lett, 1995):
Converted amounts (≈) assume the structure as drawn.

Legend:
Staphylococcus aureus [1] = test: Inhibitory activity against methicillin-sensitive staphylococcus aureus(MSSA); assay type: functional
Enterococcus [2] = test: Inhibitory activity against enterococcus evaluated by computational method; assay type: functional
Staphylococcus aureus [3] = test: Inhibitory activity against methicillin-resistant staphylococcus aureus(MRSA); assay type: functional
Bacteria [4] = test: The gram-negative activity is derived from eleven strains selected from seven enteric genera; assay type: functional
[5] = target: T1, Dipeptidase 1 (Sus scrofa) (UniProt P22412); test: (§1) Susceptibility to DHP-I (swine kidney enzyme); assay type: tissue-based
T1 sequence (whole entry): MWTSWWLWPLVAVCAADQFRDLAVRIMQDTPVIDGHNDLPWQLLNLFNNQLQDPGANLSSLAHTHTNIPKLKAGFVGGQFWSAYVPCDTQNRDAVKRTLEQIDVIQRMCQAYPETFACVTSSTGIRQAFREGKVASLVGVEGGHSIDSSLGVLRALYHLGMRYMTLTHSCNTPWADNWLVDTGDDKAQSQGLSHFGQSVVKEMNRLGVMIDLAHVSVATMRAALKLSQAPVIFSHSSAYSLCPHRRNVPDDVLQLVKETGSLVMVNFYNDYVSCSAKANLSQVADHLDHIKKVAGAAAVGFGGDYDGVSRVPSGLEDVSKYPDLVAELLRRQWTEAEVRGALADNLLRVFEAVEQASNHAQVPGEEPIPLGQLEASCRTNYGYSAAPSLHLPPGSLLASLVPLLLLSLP

MecA = target: T2, MecA (Staphylococcus aureus, UniProt Q7DHH4); test: Binding affinity towards Penicillin-binding protein 2a from homogeneous MRSA COL strain using [3H]-radioligand
T2 sequence (Q7DHH4 whole entry): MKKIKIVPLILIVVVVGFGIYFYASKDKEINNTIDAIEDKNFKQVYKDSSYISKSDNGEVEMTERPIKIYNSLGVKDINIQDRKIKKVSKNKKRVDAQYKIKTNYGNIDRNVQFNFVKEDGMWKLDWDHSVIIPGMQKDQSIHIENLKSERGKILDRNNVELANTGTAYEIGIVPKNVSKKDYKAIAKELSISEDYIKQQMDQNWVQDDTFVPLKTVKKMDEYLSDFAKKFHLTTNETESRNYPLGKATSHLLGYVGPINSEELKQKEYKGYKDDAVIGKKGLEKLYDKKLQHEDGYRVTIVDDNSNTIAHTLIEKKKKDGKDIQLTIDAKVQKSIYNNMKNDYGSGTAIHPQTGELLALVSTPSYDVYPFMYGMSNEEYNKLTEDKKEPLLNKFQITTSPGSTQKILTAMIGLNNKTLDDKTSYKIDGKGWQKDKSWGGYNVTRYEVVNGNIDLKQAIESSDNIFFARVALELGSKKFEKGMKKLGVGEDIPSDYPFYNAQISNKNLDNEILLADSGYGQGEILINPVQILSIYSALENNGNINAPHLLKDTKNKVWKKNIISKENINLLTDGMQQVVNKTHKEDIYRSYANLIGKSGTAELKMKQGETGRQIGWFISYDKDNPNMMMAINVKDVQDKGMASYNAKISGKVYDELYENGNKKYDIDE

Bacteria [6] = test: Inhibitory activity against gram negative bacteria evaluated manually; assay type: functional
Staphylococcus aureus [7] = test: Inhibitory activity against methicillin-sensitive staphylococcus aureus(MSSA) evaluated by computational method; assay type: functional
Staphylococcus sp. = test: (§2) Inhibitory activity against methicillin-resistant coagulase negative staphylococci (MRCNS) evaluated manually; assay type: functional
Sus scrofa = species on record: Sus scrofa; test: as §1; assay type: tissue-based
Staphylococcus [8] = test: Inhibitory activity against methicillin-resistant coagulase negative staphylococci (MRCNS) evaluated by computational method; assay type: functional
Staphylococcus aureus [9] = test: Inhibitory activity against methicillin-resistant staphylococcus aureus(MRSA) evaluated by computational method; assay type: functional
Staphylococcus aureus [10] = test: Inhibitory activity against methicillin-resistant staphylococcus aureus(MRSA) evaluated manually; assay type: functional
Enterococcus [11] = test: Inhibitory activity against enterococcus evaluated manually; assay type: functional
Staphylococcus aureus [12] = test: Inhibitory activity against methicillin-sensitive staphylococcus aureus(MSSA) evaluated manually; assay type: functional
Staphylococcus [13] = test: as §2; assay type: functional
Staphylococcus [14] = test: Inhibitory activity against methicillin-resistant coagulase negative staphylococci (MRCNS)evaluated manually; assay type: functional
Staphylococcus aureus [15] = test: Inhibitory activity against methicillin-resistant staphylococcus aureus(MRSA)evaluated by computational method; assay type: functional
Staphylococcus aureus [16] = test: Inhibitory activity against methicillin-resistant staphylococcus aureus(MRSA)evaluated manually; assay type: functional
Staphylococcus [17] = test: Inhibitory activity against methicillin-resistant coagulase negative staphylococci (MRCNS)evaluated by computational method; assay type: functional

Compound	MIC (Staphylococcus aureus [1]) [µg/mL]	MIC (Enterococcus [2]) [µg/mL]	MIC (Staphylococcus aureus [3]) [µg/mL]	MIC (Bacteria [4]; Bacteria, read-out: MIC) [µg/mL]	Susceptibility [5]	IC50 (MecA) [µM]	other results
C[C@@H](O)[C@H]1C(=O)N2C(C(=O)[O-])=C(Sc3nc4cc(Cl)ccc4s3)C[C@H]12.[Na+]	0.02	0.7	1.8	3.8	1.2	3.82	–
C[C@@H](O)[C@H]1C(=O)N2C(C(=O)[O-])=C(Sc3cc4ccccc4s3)[C@H](C)[C@H]12.[Na+]	0.04	5.7	3.9	9.8	0.4	41.5	–
C[C@@H](O)[C@H]1C(=O)N2C(C(=O)[O-])=C(Sc3nc4cc(CO)ccc4s3)[C@H](C)[C@H]12.[Na+]	0.07	3.8	1	8	0.3	2.8	–
C[C@@H](O)[C@H]1C(=O)N2C(C(=O)[O-])=C(Sc3ncc(-c4ccccc4)s3)[C@H](C)[C@H]12.[Na+]	0.03	8	32	16	0.5	236	–
C[C@@H](O)[C@H]1C(=O)N2C(C(=O)[O-])=C(Sc3nc4ccc(C#N)cc4s3)[C@H](C)[C@H]12.[Na+]	0.04	4.5	0.9	8.8	0.1	3.78	–
C[C@@H](O)[C@H]1C(=O)N2C(C(=O)[O-])=C(Sc3nc4cc(C[n+]5ccn(C)c5)ccc4s3)C[C@H]12	–	1.2 (≈ 2.63 µM)	–	3.4 (≈ 7.45 µM)	–	0.876	MIC (Bacteria [6]): 5.2 µg/mL (≈ 11.4 µM); MIC (Staphylococcus aureus [7]): 0.03 µg/mL (≈ 0.0657 µM); MIC (Staphylococcus sp.): 4 µg/mL (≈ 8.76 µM); Susceptibility (Sus scrofa): 0.2; MIC (Staphylococcus [8]): 0.8 µg/mL (≈ 1.75 µM); MIC (Staphylococcus aureus [9]): 1 µg/mL (≈ 2.19 µM); MIC (Staphylococcus aureus [10]): 2 µg/mL (≈ 4.38 µM); MIC (Enterococcus [11]): 1 µg/mL (≈ 2.19 µM); MIC (Staphylococcus aureus [12]): 0.02 µg/mL (≈ 0.0438 µM)
C[C@@H](O)[C@H]1C(=O)N2C(C(=O)[O-])=C(Sc3nc4ccc(Cl)cc4s3)[C@H](C)[C@H]12.[Na+]	0.1	4	2.3	17.6	–	2.08	–
C[C@@H](O)[C@H]1C(=O)N2C(C(=O)[O-])=C(Sc3nc4ccccc4o3)[C@H](C)[C@H]12.[Na+]	0.23	8.9	12.1	27.8	–	112	–
CCOc1ccc2nc(SC3=C(C(=O)[O-])N4C(=O)[C@H]([C@@H](C)O)[C@H]4[C@H]3C)sc2c1.[Na+]	0.1	6	4	31.6	0.3	10.6	–
C[C@@H](O)[C@H]1C(=O)N2C(C(=O)[O-])=C(Sc3nc4ccc(N)cc4s3)[C@H](C)[C@H]12.[Na+]	0.09	5.9	9	18.3	–	40.6	–
C[C@@H](O)[C@H]1C(=O)N2C(C(=O)[O-])=C(Sc3nc4cc(C(F)(F)F)ccc4s3)[C@H](C)[C@H]12.[Na+]	0.08	2.9	1.2	9.9	–	1.93	–
C[C@@H](O)[C@H]1C(=O)N2C(C(=O)O)=C(SCCNC=N)C[C@H]12 [IMIPENEM ANHYDROUS]	–	1.1 (≈ 3.67 µM)	–	0.6 (≈ 2 µM)	–	–	MIC (Bacteria [6]): 0.4 µg/mL (≈ 1.34 µM); MIC (Staphylococcus aureus [7]): 0.02 µg/mL (≈ 0.0668 µM); MIC (Staphylococcus [13]): > 64 µg/mL; Susceptibility (Sus scrofa): 1; MIC (Staphylococcus [8]): 63.7 µg/mL (≈ 213 µM); MIC (Staphylococcus aureus [9]): 35.9 µg/mL (≈ 120 µM); MIC (Staphylococcus aureus [10]): 64 µg/mL (≈ 214 µM); MIC (Enterococcus [11]): 1.3 µg/mL (≈ 4.34 µM); MIC (Staphylococcus aureus [12]): 0.02 µg/mL (≈ 0.0668 µM)
C[C@@H](O)[C@H]1C(=O)N2C(C(=O)[O-])=C(Sc3nccs3)[C@H](C)[C@H]12.[Na+]	0.17	7.1	18.2	2.5	0.4	33.6	–
C[C@@H](O)[C@H]1C(=O)N2C(C(=O)[O-])=C(Sc3ccc4ccccc4n3)[C@H](C)[C@H]12.[Na+]	0.05	4.9	6.3	10.1	–	71.4	–
C[C@@H](O)[C@H]1C(=O)N2C(C(=O)[O-])=C(Sc3nc4c(C[n+]5ccn(C)c5)csc4s3)C[C@H]12	0.02 (≈ 0.0432 µM)	2 (≈ 4.32 µM)	1 (≈ 2.16 µM)	5.5 (≈ 11.9 µM)	–	0.649	Susceptibility (Sus scrofa): 0.2
COC(=O)c1csc2sc(SC3=C(C(=O)[O-])N4C(=O)[C@H]([C@@H](C)O)[C@H]4[C@H]3C)nc12.[Na+]	0.04	4	2	21.9	0.3	2.59	–
C[C@@H](O)[C@H]1C(=O)N2C(C(=O)[O-])=C(Sc3nc(-c4ccccc4)cs3)C[C@H]12.[Na+]	0.03	2.1	11.3	14	3.6	–	–
C[C@@H](O)[C@H]1C(=O)N2C(C(=O)[O-])=C(Sc3nc4ccccc4s3)C[C@H]12.[Na+]	0.07	1.7	1.9	3.7	1.7	8.06	–
C[C@@H](O)[C@H]1C(=O)N2C(C(=O)[O-])=C(Sc3nc4ccc([N+](=O)[O-])cc4s3)[C@H](C)[C@H]12.[Na+]	0.05	4.9	1.1	22.4	0.2	1.35	–
C[C@@H](O)[C@H]1C(=O)N2C(C(=O)[O-])=C(Sc3nc4ccccc4s3)[C@H](C)[C@H]12.[Na+]	–	2.1	–	5.6	0.2	5.02	MIC (Staphylococcus [14]): 4 µg/mL; MIC (Staphylococcus aureus [15]): 1.7 µg/mL; MIC (Staphylococcus aureus [7]): 0.06 µg/mL; MIC (Staphylococcus aureus [16]): 1 µg/mL; MIC (Bacteria [4]): 9.7 µg/mL; MIC (Staphylococcus [17]): 1.6 µg/mL; MIC (Enterococcus [11]): 4 µg/mL; MIC (Staphylococcus aureus [12]): 0.02 µg/mL
C[C@@H](O)[C@H]1C(=O)N2C(C(=O)[O-])=C(Sc3nc4cc(Cl)ccc4s3)[C@H](C)[C@H]12.[Na+]	0.02	2.7	0.8	4.8	0.2	6.24	–
C[C@@H](O)[C@H]1C(=O)N2C(C(=O)[O-])=C(Sc3nc4c(CO)csc4s3)[C@H](C)[C@H]12.[Na+]	0.02	4	2	9.7	0.5	2.76	–
COC(=O)c1cc2sc(SC3=C(C(=O)[O-])N4C(=O)[C@H]([C@@H](C)O)[C@H]4[C@H]3C)nc2o1.[Na+]	0.02	4	4	12.4	–	3.36	–
C[C@@H](O)[C@H]1C(=O)N2C(C(=O)O)=C(SCCN=CN)C[C@H]12 [IMIPENEM ANHYDROUS]	–	–	–	–	–	428	–
C[C@@H](O)[C@H]1C(=O)N2C(C(=O)[O-])=C(Sc3ncc4ccccc4n3)[C@H](C)[C@H]12.[Na+]	0.02	8	4	15	0.3	30.2	–
C[C@@H](O)[C@H]1C(=O)N2C(C(=O)[O-])=C(Sc3nc(-c4ccccc4)cs3)[C@H](C)[C@H]12.[Na+]	0.05	2.6	1.9	6.6	0.4	23.8	–
